Where a SMILES comes first, the peptide text is derived from it. Bridges are numbered along the chain shown (N, C = ends). The star is where a group is joined. 5FAM = O=C1OC2(c3ccc(O)cc3Oc3cc(O)ccc32)c2ccc(C(=O)*)cc21
Tests used:
EBC-1 cells = experiment: Cellular uptake after pretreatment with endocytosis inhibitors, flow cytometry; format: cell-based, human; conditions: peptide 5 μM 90 min 37 °C; for effect of CPZ (clathrin-mediated endocytosis inhibitor) on cellular uptake: CPZ 30 μM pretreatment 30 min
Method: In order to study the effect of inhibitors, the peptide conjugates were administered at 5 μM when the cells were pretreated by the inhibitors for 30 min. The cells were then kept at 37 °C for 90 min. Macropinocytosis was inhibited using 5-(N-ethyl-N-isopropyl)amiloride (EIPA), clathrin-mediated endocytosis with chlorpromazine (CPZ), colchicine (Col) to assess the role of microtubules, and methyl-β-cyclodextrin (CyD) for the inhibition of caveolae/lipid-raft-mediated endocytosis.
The CPPs can use several pathways to enter the cell. The dependence of the cellular uptake was measured for each Dabcyl-containing cyclic BBMB peptide using different inhibitors (Figure 7). The 5-(N-ethyl-N-isopropyl)amiloride (EIPA) inhibits macropinocytosis, chlorpromazine (CPZ) inhibits clathrin-mediated endocytosis, and colchicine (COL) was used to inhibit microtubule formation. Finally, methyl-beta-cyclodextrin (CyD) was used to inhibit caveolae-mediated endocytosis.
Figure 7 Effect of endocytosis inhibitors on the cellular uptake of peptides. Before the treatment with the peptide conjugates (5 μM) for 90 min, the EBC-1 cells were pretreated with inhibitors EIPA (50 μM), CPZ (30 μM), CyD (5 mM), and COL (10 mM) for 30 min. Significant difference from the control was measured using Student’s t-test (* p < 0.05). Data represent the mean ± standard deviation (SD).

[1] = test system: EBC-1 human lung squamous cancer cells; experiment: Cellular uptake (internalization) of Cf-labelled peptides by flow cytometry; format: cell-based; conditions: 90 min; for internalization relative to octaarginine (Cf-Arg8): Cf-labelled peptides at 1, 5, 10 µM, trypsin treatment, flow cytometry fluorescence intensity, mean ± SD; for efficacy (internalization) of tetra- versus hexaarginine bicyclic derivative / cellular uptake compared with linear peptide Acyl-Met-(Arg)6-Met-(Gly)4-Lys(Cf) / internalization compared with octaarginine (in words): EBC-1 cells, 1, 5, 10 µM
Method: The internalization study of fluorophore-labeled peptides was performed on 24-well plates with 10^5 EBC-1 human lung squamous cancer cells (CRL-5889TM) per well. After 24 h incubation at 37 °C, the cells were treated with a serum-free medium as a negative control and with peptides in different concentrations (1, 5, 10 μM). After the incubation, 100 μL trypsin (0.25%) was used for 5–10 min to remove the excess peptides from the membranes and to detach the cells from the plates. By adding 800 µL of HPMI buffer (glucose, NaHCO3, NaCl, HEPES, KCl, MgCl2, CaCl2, Na2HPO4 × 2 H2O) containing 10% fetal bovine serum (FBS), the trypsin activity was stopped, and the cells were transferred to tubes for measurement. The cells were centrifuged at 216× g at 4 °C, and the supernatant was disposed of. The resuspended cells (in 250 μL HPMI) were used to measure their fluorescence intensity by flow cytometer (BDLSR II, BD Bioscience, San Jose, CA, USA). Data were analyzed with FACSDiVa 5.0 software (BD Bioscience, San Jose, CA, USA).
The internalization of peptides was measured by flow cytometry on EBC-1 cells. The carboxyfluorescein-labeled peptides were studied at 1, 5, and 10 μM concentrations. The cells were treated for 90 min at 37 °C.

[2] = Stability measurement in 25% human plasma; format: in vitro ADME; conditions: 25% human plasma (sodium citrate), 37 °C, aliquots at 0, 1 and 24 h, RP-HPLC; preliminary experiment
Method: The analysis was carried out based on the details described in Yuchen Hu et al.. The linear (Dabcyl-Met-(Arg)6-Met-(Gly)4-Lys(Cf)) and cyclic (Dabcyl-Cys-(Arg)6-Cys-(Gly)4-Lys(Cf) para BBMB) peptides were incubated with 25% human plasma at 37 °C. An aliquot of the peptide; human plasma mixture was taken at time points 0, 1, and 24 h. The samples were analyzed by RP-HPLC.
The molecular weight of peptides and conjugates was determined with ESI-MS using Bruker Amazon SL (Germany). The samples were dissolved in water-acetonitrile solution (50:50) with 0.1% formic acid. The samples were directly injected with a syringe pump.
Parameters: capillary voltage: 4 kV, nebulizer gas: 10 psi, dry gas: 4 L/min, heated capillary temperature: 250 °C.
EBC-1 human lung squamous cancer cells (CRL-5889TM) were used for the in vitro analysis. These cells were a generous gift of Prof. […]
Analytical RP-HPLC was performed on Exformma (Exformma Technology (ASIA) Co., Ltd, Hong Kong, China) HPLC system. […] Linear gradient elution (0 min 0% B; 2 min 0% B; 22 min 90% B) was used with eluent A (0.1% TFA in water) and eluent B (0.1% TFA in acetonitrile-water (80:20, v/v)) at 1mL/min flowrate, the peaks were detected at λ= 220 nm for both analytical and preparative RP-HPLC. […]
Samples were taken in 0, 1 and 24 hour time periods and measured with analytical HPLC. […]

Dabcyl-(Arg)6-Cys-(Gly)4-Cys-Lys(Cf) orto BBMB (sidechain bridge or staple) [Dabcyl cyclic peptide, orto BBMB, hexaarginine at N-terminus]
effect of CPZ (clathrin-mediated endocytosis inhibitor) on cellular uptake (EBC-1 cells): inhibits

Dabcyl-Cys-(Arg)6-Cys-(Gly)4-Lys(Cf) orto BBMB (sidechain bridge or staple) [Dabcyl cyclic peptide, orto BBMB, hexaarginine in the cycle]
effect of CPZ (clathrin-mediated endocytosis inhibitor) on cellular uptake (EBC-1 cells): inhibits | internalization relative to octaarginine (Cf-Arg8) ([1]; EBC-1 cells, 37 °C): 5 fold

Acyl-Cys-(Arg)2-Cys-(Arg)2-Cys-Lys(Cf) TBMB (bicyclic or more) [acylated bicyclic tetraarginine peptide on TBMB scaffold]
efficacy (internalization) of tetra- versus hexaarginine bicyclic derivative ([1]; flow cytometry): no difference

CC(=O)N[C@H]1CSSC[C@@H](C(=O)NCC(=O)NCC(=O)NCC(=O)NCC(=O)N[C@@H](CCCCNC(=O)c2ccc3c(c2)C(=O)OC32c3ccc(O)cc3Oc3cc(O)ccc32)C(N)=O)NC(=O)[C@H](CCCNC(=N)N)NC(=O)[C@H](CCCNC(=N)N)NC(=O)[C@H](CCCNC(=N)N)NC(=O)[C@H](CCCNC(=N)N)NC(=O)[C@H](CCCNC(=N)N)NC(=O)[C@H](CCCNC(=N)N)NC1=O [Acyl-Cys((Arg)6-Cys)-(Gly)4-Lys(Cf)] (Ac-CRRRRRRCGGGGK(5FAM)-NH2; disulfide 1-8)
efficiency of cellular uptake compared with octaarginine at 5 µM ([1]; EBC-1 cells, 5 µM, 37 °C, flow cytometry): the same | efficiency of cellular uptake compared with octaarginine at 10 µM ([1]; EBC-1 cells, 10 µM, 37 °C, flow cytometry): almost half | cellular uptake compared with linear peptide Acyl-Met-(Arg)6-Met-(Gly)4-Lys(Cf) ([1]; 37 °C, flow cytometry): better cellular uptake | cellular uptake compared with linear peptide Acyl-Met-(Arg)6-Met-(Gly)4-Lys(Cf) ([1]; 37 °C, flow cytometry, listed as Acyl-Cys-(Arg)6-Cys-(Gly)4-Lys(Cf)): did increase the internalization

Acyl-Cys-(Arg)3-Cys-(Arg)3-Cys-Lys(Cf) TBMB (bicyclic or more) [acylated bicyclic hexaarginine peptide on TBMB scaffold]
efficacy (internalization) of tetra- versus hexaarginine bicyclic derivative ([1]; flow cytometry): no difference

Dabcyl-Cys-(Gly)4-Cys-(Arg)6-Lys(Cf) orto BBMB (sidechain bridge or staple) [Dabcyl cyclic peptide, thioether bonds to orto BBMB, hexaarginine at C-terminus]
effect of EIPA (macropinocytosis inhibitor) on cellular uptake (EBC-1 cells; EIPA 50 μM pretreatment 30 min, Student's t-test p < 0.05): did not have an effect

Dabcyl-Cys-(Arg)6-Cys-(Gly)4-Lys(Cf) para BBMB (sidechain bridge or staple) [Dabcyl cyclic peptide, para BBMB, hexaarginine in the cycle]
effect of CPZ (clathrin-mediated endocytosis inhibitor) on cellular uptake (EBC-1 cells): inhibits | stability in 25% human plasma [2]: stable | toxicity in the uptake experiment ([1]; EBC-1 cells, 10 µM, 37 °C): showed toxicity | internalization relative to octaarginine (Cf-Arg8) ([1]; EBC-1 cells, 37 °C): 5 fold

Dabcyl-(Arg)6-Cys-(Gly)4-Cys-Lys(Cf) para BBMB (sidechain bridge or staple) [Dabcyl cyclic peptide, para BBMB, hexaarginine at N-terminus]
effect of CPZ (clathrin-mediated endocytosis inhibitor) on cellular uptake (EBC-1 cells): inhibits

Dabcyl-Cys((Arg)6-Cys)-(Gly)4-Lys(Cf) (disulfide) [Dabcyl cyclic peptide with disulfide bond, Cf-labelled]
internalization compared with octaarginine (in words) ([1]; 37 °C, flow cytometry): still better | internalization relative to octaarginine (Cf-Arg8) ([1]; EBC-1 cells, 37 °C): 1.5–2 fold

Dabcyl-Cys-(Arg)4-Cys-(Arg)4-Cys-Lys(Cf) TBMB (bicyclic or more) [Dabcyl bicyclic octaarginine peptide on TBMB scaffold]
internalization compared with octaarginine (in words) ([1]; 37 °C, flow cytometry): better internalization | internalization relative to octaarginine (Cf-Arg8) ([1]; EBC-1 cells, 37 °C): 3 fold
